These results are taken from patent US9090549B2, “1,4-naphthoquinones derivatives and therapeutic use thereof” (CENTRE NATIONAL DE LA RECHERCHE SCIENTIFIQUE (C.N.R.S.), priority 2008, dated 2015).

Where two headings read alike, the source gives them in different places. A value given as a limit tells only on which side of the number the result lay.

Data set [1] relates to P. falciparum multidrug-resistant strain Dd2. The data set can be described thus: Dd2 growth inhibition, 3H-hypoxanthine assay. It counts as cell-based, Plasmodium falciparum. The note with it: Plasmodium falciparum. As for the experimental part: The IC50 was tested by standard in vitro antiproliferation assays (Desjardins et al, 1979 Antimicrob. Agents Chemother 1979, 16, 710-718). Infected erythrocytes in ring stage (0.5% parasitemia, 2.5% hematocrit) in 96-well plates were exposed to the compounds for 48 h and then to radioactive hypoxanthine for 24 h. The amount of radioactivity in precipitable material served as an index of cell proliferation.

Data set [2] deals with P. falciparum chloroquine sensitive strain 3D7. The data set can be described thus: 3D7 growth inhibition, 3H-hypoxanthine assay. It counts as cell-based, Plasmodium falciparum. The note with it: read-out: IC50 against Pf 3D7. As to the method:
(§1) The IC50 values against Pf-GHA and MRC-5 were determined by using the less sensitive colorimetric NBT-based lactate dehydrogenase assay (Makler et al, Am. J. Trop. Med. Hyg. 1993, 48 (6), 739-741) based on redox-reactions.
(§2) Parasite Cultures. […] P. falciparum in vitro culture was carried out using standard protocols (Trager et al, 1976 Science, 193, 673-675) with modifications. Briefly, parasites were maintained in tissue culture flasks in human A Rh+ erythrocytes at 5% hematocrit in RPMI 1640 supplemented with 25 mM HEPES, 24 mM NaHCO3, 0.2% (w/v) glucose, 0.03% L-glutamine, 150 μM hypoxanthine, and 0.5% Albumax II® (Invitrogen) in a 5% CO2/air mixture at 37° C., and the medium was changed daily.
(§3) In Vitro Antiparasitic Bioassays. Drug susceptibility of P. falciparum was studied using a modified method (Cameron et al, 2004 J. Biol. Chem. 279, 31429-31439) of the protocol described previously (Desjardins et al, 1979). All assays included CQ diphosphate (Sigma, UK) as a standard and control wells with untreated infected and uninfected erythrocytes. IC50 values were derived by sigmoidal regression analysis (Microsoft Xlfit™).

The test system of data set [3] is P. falciparum chloroquine resistant strain K1. The data set can be described thus: K1 growth inhibition, 3H-hypoxanthine assay. The data set is classed as cell-based, Plasmodium falciparum. The note with it: read-out: IC50 against Pf K1. As for the experimental part: as §1, §2, §3
A further data set relates to Pf-GHA. The data set can be described thus: Pf-GHA growth inhibition, colorimetric NBT-based lactate dehydrogenase assay. It counts as cell-based. The note with it: Plasmodium falciparum, read-out: IC50 against Pf-GHA. As for the experimental part:
as §1
In Vitro Antiparasitic Bioassays. The strain is maintained in RPMI-1640 medium supplemented with 0.37 mM hypoxanthine, 25 mM HEPES, 25 mM NaHCO3, and 10% O^+ human serum together with 2-4% washed human O^+ erythrocytes. All cultures and assays are conducted under an atmosphere of 4% CO2, 3% O2 and 93% N2. Assays are performed in 96-well microtiter plates, each well containing 10 μL of the watery compound dilutions together with 190 μL of the malaria parasite inoculum (1% parasitaemia, 2% HCT). After 72 h incubation, plates are frozen and stored at −20° C. After thawing, 20 μL of each well is transferred into another plate together with 100 μL Malstat reagent and 20 μL of 1/1 mixture of PES (phenazine ethosulfate, 0.1 mg/mL) and NBT (Nitro Blue Tetrazolium Grade III, 2 mg/mL). Change in colour is measured spectrophotometrically at 655 nm. The results are expressed as % reduction in parasitaemia compared to control wells. Compounds are treated at 5 concentrations (64-16-4-1 and 0.25 μM or μg/mL).

The test system of a further data set is P. berghei ANKA. The data set can be described thus: In vivo 4-day suppressive test in P. berghei-infected mice. The arrangement: species or system Plasmodium berghei. The note with it: for reduction of the parasitemia: Plasmodium Berghei ANKA-infected CD1 mice. As for the experimental part: The in vivo tests in the mouse model were done according to a standard protocol (Peters et al Handbook of Animal Models of Infection; Academic Press, London, 1999; pp. 756-771). […] […] For administration, compounds were freshly prepared in 10% DMSO in sterile phosphate-buffered saline the day of use. Two hours post-infection mice received the first treatment by the intraperitoneal route. Mice were further treated on days +1-3. Blood films from tail blood were prepared on day +4, and parasitaemia was determined by microscopic examination of Giemsa-stained blood films. […] […] Mice were treated and levels of parasitemia determined as described.

For a further data set, the system named is Pf H. In words: microbe, parasite or virus in culture. The note with it: Plasmodium falciparum, read-out: IC50 against Pf H.
A further data set concerns P. falciparum 3D7. The data set can be described thus: microbe, parasite or virus in culture. The note with it: Plasmodium falciparum, 3D7, 48 h.
The subject of the next data set is P. falciparum FCM29. In words: microbe, parasite or virus in culture. The note with it: Plasmodium falciparum, 48 h.
For data set [4], the target named is T1, human glutathione reductase (hGR) (Homo sapiens, UniProt P00390).
T1 sequence (P00390 44-522): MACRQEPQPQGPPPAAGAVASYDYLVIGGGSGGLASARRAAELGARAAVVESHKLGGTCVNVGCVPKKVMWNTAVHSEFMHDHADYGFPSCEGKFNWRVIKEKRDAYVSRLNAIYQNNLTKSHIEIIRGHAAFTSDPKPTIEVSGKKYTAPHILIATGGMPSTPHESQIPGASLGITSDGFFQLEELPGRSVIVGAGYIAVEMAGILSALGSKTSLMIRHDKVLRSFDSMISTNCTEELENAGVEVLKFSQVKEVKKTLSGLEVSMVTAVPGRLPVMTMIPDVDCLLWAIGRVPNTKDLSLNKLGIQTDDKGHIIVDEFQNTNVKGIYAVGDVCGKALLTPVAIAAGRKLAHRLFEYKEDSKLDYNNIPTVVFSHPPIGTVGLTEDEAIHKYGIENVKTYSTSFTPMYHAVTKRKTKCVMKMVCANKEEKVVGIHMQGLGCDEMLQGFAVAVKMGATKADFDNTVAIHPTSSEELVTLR
The data set can be described thus: Inhibition of human glutathione reductase under steady-state conditions. The data set is classed as biochemical. The note with it: pH 6.9, 25° C., 1 mM GSSG, 100 μM NADPH.

The target in data set [5] is T2, P. falciparum glutathione reductase (PfGR) (Plasmodium falciparum, UniProt Q94655). The data set can be described thus: 1,4-Naphthoquinone reductase activity of P. falciparum glutathione reductase. The data set is classed as biochemical. The note with it: with respect to menadione. As for the experimental part: The reduction assay mixture consisted of 100 mM potassium phosphate buffer pH 6.9, 200 mM KCl, 1 mM EDTA and 100 μM NADPH in a total volume of 1 mL. 1,4-naphthoquinone reductase activity was determined by recording the initial velocities in the presence of increasing naphthoquinone concentrations (0-300 μM). […] For the determination of KM and Vmax values, the steady-state rates were fitted by using nonlinear regression analysis software (Kaleidagraph) to the Michaelis-Menten equation. From these values, the turnover number kcat and the catalytic efficiency kcat/KM were calculated.

The target of data set [6] is T2, P. falciparum glutathione reductase (PfGR). The data set can be described thus: biochemical.
Method: The standard assay was conducted at 25° C. in a 1 mL-cuvette. The assay mixture contained 100 μM NADPH and 1 mM GSSG in GR buffer (100 mM potassium phosphate buffer, 200 mM KCl, 1 mM EDTA, pH 6.9). […] Inhibitor stock solutions were prepared in 100% DMSO. 1% DMSO concentration was kept constant in the assay cuvette. The reaction was started by adding enzyme (8 mU human GR, 6.5 mU P. falciparum GR) and initial rates of NADPH oxidation were monitored at 340 nm (ε340 nm=6.22 mM^−1 cm^−1).
The next data set addresses methemoglobin(Fe3+) (Homo sapiens, UniProt P68871+P69905). The data set can be described thus: Redox-cycling of methemoglobin(Fe3+) into oxyhemoglobin(Fe2+) with NADPH/GR system. The note with it: 100 μM MetHb, NADPH, human GR. The data set is classed as biochemical. The source says: Since FPIX(Fe^2+) is an inhibitor of hematin polymerization, compounds displaying the ability to reduce FPIX(Fe^3+) into FPIX(Fe^2+) might synergistically contribute with GR inhibition to increased oxidative stress in infected-red blood cells. To evaluate the redox-cycling activity of FPIX(Fe^3+) into FPIX(Fe^2+) we set up an assay using the naphthoquinone, the glutathione reductase/NADPH-based system to regenerate the dihydronaphthoquinone continuously and methemoglobin(Fe^3+) (MetHb). The UV-spectrum of MetHb between 300 nm and 700 nm is characterized by a maximal absorbance at 405 nm and a broad band centered at around 630 nm. […] We used 20 μM methylene blue as positive control of this redox-cycling activity.
In an Eppendorf tube containing 6.4 mg MetHb dissolved in 885 μL GR buffer (47 mM potassium phosphate buffer pH 6.9, 200 mM KCl, 100 mM EDTA), 10 μL 20 mM P_TM25 dissolved in DMSO and 100 μL NADPH dissolved in GR buffer were added. The reaction was started by the addition of 5 μL human GR and then incubated at 37° C. In a 1 mL cuvette 20 μL of the reaction mixture was diluted with 980 μL GR buffer and a UV-spectra between 300 nm and 700 nm was done after 5 min, 10 min, 20 min and 30 min incubation time. The final concentrations in the reaction mixture were 100 μM MetHb, 200 μM P_TM25, 400 μM NADPH and […] hGR, final DMSO concentration 1%.
Spectra were measured after 5 min (blue), 10 min (black), 20 min (green) and 30 min (red).

Data set [7] addresses T2, P. falciparum glutathione reductase (PfGR). The note with it: menadione reference, Bauer et al 2006; cited from earlier work.
In data set [8] the target is T1, human glutathione reductase (hGR). The note with it: menadione reference, Bauer et al 2006; cited from earlier work.
For data set [9], the target named is T2, P. falciparum glutathione reductase (PfGR). The note with it: menadione against PfGR, Biot et al 2004; cited from earlier work.

T2 sequence (Q94655 2-500 limits assumed): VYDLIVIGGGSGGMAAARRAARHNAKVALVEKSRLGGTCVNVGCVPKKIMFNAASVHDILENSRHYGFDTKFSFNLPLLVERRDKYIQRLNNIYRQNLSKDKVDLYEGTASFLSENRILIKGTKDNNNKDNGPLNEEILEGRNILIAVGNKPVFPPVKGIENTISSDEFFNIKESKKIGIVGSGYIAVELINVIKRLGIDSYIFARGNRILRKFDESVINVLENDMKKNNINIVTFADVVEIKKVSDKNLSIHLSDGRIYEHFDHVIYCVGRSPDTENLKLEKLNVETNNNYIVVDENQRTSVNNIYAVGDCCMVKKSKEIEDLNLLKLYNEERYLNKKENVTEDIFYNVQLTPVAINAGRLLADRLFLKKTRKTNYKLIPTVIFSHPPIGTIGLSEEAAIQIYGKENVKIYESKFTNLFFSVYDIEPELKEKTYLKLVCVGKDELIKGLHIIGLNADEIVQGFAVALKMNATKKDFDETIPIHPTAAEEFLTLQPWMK
Chain of methemoglobin(Fe3+) (P69905 2-142 limits assumed): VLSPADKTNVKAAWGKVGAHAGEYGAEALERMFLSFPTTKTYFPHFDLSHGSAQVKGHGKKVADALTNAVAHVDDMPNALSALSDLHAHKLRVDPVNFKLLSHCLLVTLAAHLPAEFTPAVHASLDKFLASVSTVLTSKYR
Chain of methemoglobin(Fe3+) (P68871 2-147 limits assumed): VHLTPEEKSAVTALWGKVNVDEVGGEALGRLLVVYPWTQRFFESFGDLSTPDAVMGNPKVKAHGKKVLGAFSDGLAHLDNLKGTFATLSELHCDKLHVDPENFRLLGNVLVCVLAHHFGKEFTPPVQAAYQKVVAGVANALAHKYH
Method for P. falciparum 3D7: (§4) Twelve parasite strains or isolates from a wide panel of countries (Africa (3D7), Brazil (Bre), Cambodia (K2 and K14), Cameroon (FCM29), Djibouti (Vol1), the Gambia (FCR3), Indochina (W2), Niger (L1), Senegal (8425), Sierra Leone (D6), and Uganda (PA)) were maintained in culture in RPMI 1640 (Invitrogen, Paisley, United Kingdom), supplemented with 10% human serum (Abcys S.A. Paris, France) and buffered with 25 mM HEPES and 25 mM NaHCO3. Parasites were grown in A-positive human blood under controlled atmospheric conditions that consists of 10% O2, 5% CO2 and 85% N2 at 37° C. with a humidity of 95%.
(§5) FQ and synthetic compounds were resuspended and then diluted in RPMI-DMSO (99 v/1 v) to obtain final concentration ranged from 0.125 to 500 nM. […]
(§6) For in vitro isotopic microtests, 25 μL/well of antimalarial drug and 200 μL/well of the parasitized red blood cell suspension (final parasitemia, 0.5%; final hematocrit, 1.5%) were distributed into 96 well plates. Parasite growth was assessed by adding 1 μCi of tritiated hypoxanthine with a specific activity of 14.1 Ci/mmol (Perkin-Elmer, Courtaboeuf, France) to each well at time zero. […] Radioactivity incorporated by the parasites was measured with a scintillation counter (Top Count; Perkin-Elmer).
(§7) The IC50 value was determined by non-linear regression analysis of log-based dose-response curves (Riasmart™, Packard, Meriden, USA).
Method for P. falciparum FCM29: as §4, §5, §6, §7

Turning to `CCN(CC)CCCC(C)Nc1ccnc2cc(Cl)ccc12` (stereo not shown) [chloroquine, reference compound], the half-inhibitory concentration (IC50) was 291 nM in data set [1] (DD2, read-out: IC50 against Dd2); about 20 nM in data set [2]; about 1000 nM in [3]; 50 nM with Pf-GHA (72 h); 217 nM in the data set with Pf H; 21.3 nM in the data set with P. falciparum 3D7 (read-out: IC50 against strain 3D7). For the same molecule, the half-maximal inhibitory concentration (IC50) in the data set with P. falciparum FCM29 (read-out: IC50 against strain FCM29) is 879 nM. Besides, the “reduction of the parasitemia” value in the data set on P. berghei ANKA (1.0 mg/kg) stood at 2.5%; with P. berghei ANKA (3.0 mg/kg), 16.6%; in the data set on P. berghei ANKA (10.0 mg/kg), 94.9%. The inhibition of parasitaemia in the data set with P. berghei ANKA (10 mg/kg i.p.) is on record as 98.9%; in the data set on P. berghei ANKA (p.o. at 10 mg/kg/day, positive control), “complete inhibition”. Moreover, the 90% effect concentration (IC90) was determined as 40.4 nM with P. falciparum 3D7 (read-out: IC90 against strain 3D7) and 1240 nM with P. falciparum FCM29 (read-out: IC90 against strain FCM29).

For the molecule `CC1=C(C(O)c2ccc(Br)cc2)C(=O)c2ccccc2C1=O` (stereo not shown) [P_TM23, 2-[(4-Bromo-phenyl)-hydroxy-methyl]-3-methyl-[1,4]naphthoquinone], the melting point lay within 61 to 62 °C. Half-maximal inhibition in [4] (IC50) required 1300 nM. Besides, in data set [5], the “substrate behaviour from catalytic efficiencies kcat/KM” value is recorded as “very effective substrates”. The half-maximal inhibitory concentration (IC50) in [6] was 4.5 µM.

Consider `CC1=C(Cc2ccc(C)cc2)C(=O)C2C=CC=CC2C1=O` (stereo not shown) [P_TM21, 2-Methyl-3-(4-methyl-benzyl)-4a,8a-dihydro-[1,4]naphthoquinone], for which the melting point was 225 °C (dec.). The concentration for half-maximal inhibition (IC50) in data set [1] (DD2, 48 h exposure then 24 h hypoxanthine, read-out: IC50 against Dd2) was found to be 791 nM. In addition, the IC50 in [2] (Plasmodium falciparum, 3D7) was 270 nM. Also, the 50% inhibitory concentration (IC50) in data set [3] (Plasmodium falciparum, K1) is 100 nM. Also, the IC50 in the data set with Pf-GHA (72 h incubation) was under 5000 nM.

On to `CC1=CC(=O)c2ccccc2C1=O` [menadione], for which the “concentration at which the shift of maximal absorbance of MetHb from 405 to 410 nm starts being visible” value at methemoglobin(Fe3+) was found to be 50 µM. In addition, the 50% inhibitory concentration (IC50) in data set [7] is 42 µM. The half-inhibitory concentration (IC50) in data set [8] is 27.5 µM. Further, in data set [9], the Michaelis constant (Km) was 82.2 µM and the kcat was 9.6 min⁻¹.

By IC50 is commonly meant the concentration that gives 50% inhibition. For orientation: IC90 means the concentration at which the effect reaches the 90% level. The term melting point denotes the temperature, or range, at which the solid turns liquid. By Km is commonly meant the substrate concentration at which the rate is half of its maximum. As usually defined, the kcat is the number of substrate molecules converted per active site and unit of time at saturation.
